# Reference: publication PMC9363195, “Preclinical Pharmacokinetics, Biodistribution, and Acute Toxicity Evaluation of Caerin 1.9 Peptide in Sprague Dawley Rats” (Evidence-based Complementary and Alternative Medicine : eCAM, 2022)
# Peptide text beside a SMILES is read from it.
# System: SD rats
# Experiment: Hematology and coagulation analysis in acute toxicity study
# Assay type: in vivo, Sprague Dawley rats
# Details: day 15, mean ± SD
# Experimental: Forty SD rats (20 males and 20 females) were randomly divided into 4 groups (Figure 1). All rats were given F3 once on the day of the experiment.
# Twelve SD rats (6 males, 6 females) were given a daily subcutaneous injection of F3 at a dose of 10.0 mg/kg for consecutive 14 days. The first day of administration was recorded as day 1.
# For 14 days, the body weight was measured before F3 administration on the first day of the experiment and once a week thereafter, with additional measurements on the day before and on the day of the planned autopsy. Food intake was recorded once a week. The rats were anesthetized by inhalation of 70% CO2/30% O2 before dissection, and blood samples were taken for hematology and biochemical analysis. The collected tissue was weighed and preserved for pathological examination.
# Blood smears were used to investigate the morphology of basophils (ABBASO), eosinophils (ABEOS), neutrophils (ABNEUT), monocytes (ABMONO), and lymphocytes (ABLYMP) in the peripheral blood. When white blood cell classification and reticulocyte count cannot be calculated directly by ADVIA 2120i, they were manually counted and calculated following the procedure published previously. The number of platelets was determined manually when they could not be counted mechanically because of coagulation. Wright-Giemsa staining was used to prepare blood smears for cell morphology.
# Liver and renal functions were measured with special attention to alanine aminotransferase (ALT), aspartate aminotransferase (AST), alkaline phosphatase (ALP), serum creatinine, total bilirubin, and urea levels. In addition, the levels of glucose, calcium, total protein, and albumin in serum samples were measured. The blood biochemical test, hematology test, and coagulation function test were detected by Hitachi 7180 automatic biochemical analyzer, Siemens ADVIA 2120i hematology analyzer, and Stargo Emo Express Hemagglutination analyzer, respectively.
# [1] = female SD rats, s.c. 10.0 mg/kg daily x14 d, n=6
# [2] = female SD rats, single s.c. 1.0 mg/kg, n=5
# [3] = female SD rats, single s.c. 10.0 mg/kg, n=5
# [4] = female SD rats, single s.c. 100.0 mg/kg, n=5
# [5] = male SD rats, s.c. 10.0 mg/kg daily x14 d, n=6
# [6] = male SD rats, single s.c. 1.0 mg/kg, n=5
# [7] = male SD rats, single s.c. 10.0 mg/kg, n=5
# [8] = male SD rats, single s.c. 100.0 mg/kg, n=5
smiles,measurement,setting,value
"CC[C@H](C)[C@H](NC(=O)[C@H](CO)NC(=O)CNC(=O)[C@H](CC(C)C)NC(=O)[C@@H](NC(=O)CNC(=O)[C@H](Cc1ccccc1)NC(=O)[C@H](CC(C)C)NC(=O)CN)C(C)C)C(=O)N[C@@H](C)C(=O)N[C@@H](CCCCN)C(=O)N[C@@H](Cc1c[nH]cn1)C(=O)N[C@H](C(=O)N[C@@H](CC(C)C)C(=O)N1CCC[C@H]1C(=O)N[C@@H](Cc1c[nH]cn1)C(=O)N[C@H](C(=O)N[C@H](C(=O)N1CCC[C@H]1C(=O)N[C@H](C(=O)N[C@H](C(=O)N[C@@H](C)C(=O)N[C@@H](CCC(=O)O)C(=O)N[C@@H](CCCCN)C(=O)N[C@@H](CC(C)C)C(N)=O)[C@@H](C)CC)C(C)C)C(C)C)C(C)C)C(C)C [F3, Caerin 1.9] (H-GLFGVLGSIAKHVLPHVVPVIAEKL-NH2)",ABBASO (basophils),[1],0.01 ± 0 10^9/L
same,ABEOS (eosinophils),[1],0.16 ± 0.07 10^9/L
same,ABLYMP (lymphocytes),[1],7.64 ± 1.61 10^9/L
same,ABMONO (monocytes),[1],0.23 ± 0.08 10^9/L
same,ABNEUT (neutrophils),[1],2.53 ± 0.45 10^9/L
same,ABRETIC,[1],273.87 ± 31.75 10^9/L
same,APTT,[1],14.9 ± 0.28 s
same,HCT,[1],38.2 ± 1.34%
same,HGB,[1],11.62 ± 0.50 g/dL
same,MCH,[1],19.25 ± 0.69 pg
same,MCHC,[1],30.4 ± 0.46 g/dL
same,MCV,[1],63.38 ± 2.38 fL
same,MPV,[1],8.58 ± 0.42 fL
same,PLT,[1],1357.67 ± 169.65 10^9/L
same,PT,[1],20.45 ± 1.16 s
same,RBC,[1],6.04 ± 0.37 10^12/L
same,WBC,[1],10.67 ± 1.900 10^9/L
same,ABBASO (basophils),[2],0.006 ± 0.005 10^9/L
same,ABEOS (eosinophils),[2],0.072 ± 0.034 10^9/L
same,ABLYMP (lymphocytes),[2],5.956 ± 2.336 10^9/L
same,ABMONO (monocytes),[2],0.228 ± 0.234 10^9/L
same,ABNEUT (neutrophils),[2],1.71 ± 1.516 10^9/L
same,ABRETIC,[2],226.5 ± 33.41 10^9/L
same,APTT,[2],16.94 ± 1.15 s
same,HCT,[2],45.34 ± 3.13%
same,HGB,[2],14.44 ± 1.06 g/dL
same,MCH,[2],19.06 ± 0.27 pg
same,MCHC,[2],31.82 ± 0.47 g/dL
same,MCV,[2],59.86 ± 0.56 fL
same,MPV,[2],9.02 ± 0.30 fL
same,PLT,[2],1081.6 ± 83.2 10^9/L
same,PT,[2],20.06 ± 0.75 s
same,RBC,[2],7.584 ± 0.568 10^12/L
same,WBC,[2],8.022 ± 3.840 10^9/L
same,ABBASO (basophils),[3],0.01 ± 0.007 10^9/L
same,ABEOS (eosinophils),[3],0.072 ± 0.032 10^9/L
same,ABLYMP (lymphocytes),[3],6.526 ± 1.92 10^9/L
same,ABMONO (monocytes),[3],0.136 ± 0.034 10^9/L
same,ABNEUT (neutrophils),[3],1.128 ± 0.308 10^9/L
same,ABRETIC,[3],192.02 ± 21.07 10^9/L
same,APTT,[3],18.24 ± 1.36 s
same,HCT,[3],46.98 ± 1.22%
same,HGB,[3],14.9 ± 0.29 g/dL
same,MCH,[3],18.78 ± 0.75 pg
same,MCHC,[3],31.76 ± 0.46 g/dL
same,MCV,[3],59.1 ± 1.71 fL
same,MPV,[3],9.28 ± 0.20 fL
same,PLT,[3],1004.4 ± 93.7 10^9/L
same,PT,[3],19.44 ± 0.70 s
same,RBC,[3],7.954 ± 0.424 10^12/L
same,WBC,[3],7.922 ± 1.865 10^9/L
same,ABBASO (basophils),[4],0.008 ± 0.004 10^9/L
same,ABEOS (eosinophils),[4],0.06 ± 0.031 10^9/L
same,ABLYMP (lymphocytes),[4],5.886 ± 1.807 10^9/L
same,ABMONO (monocytes),[4],0.142 ± 0.094 10^9/L
same,ABNEUT (neutrophils),[4],1.148 ± 0.434 10^9/L
same,ABRETIC,[4],215.84 ± 21.41 10^9/L
same,APTT,[4],17.02 ± 1.47 s
same,HCT,[4],47.16 ± 1.49%
same,HGB,[4],14.96 ± 0.47 g/dL
same,MCH,[4],18.64 ± 1 pg
same,MCV,[4],58.8 ± 2.76 fL
same,MPV,[4],9 ± 0.19 fL
same,PLT,[4],987 ± 86.1 10^9/L
same,PT,[4],19.72 ± 0.50 s
same,RBC,[4],8.042 ± 0.561 10^12/L
same,WBC,[4],7.28 ± 2.163 10^9/L
same,ABBASO (basophils),[5],0.01 ± 0.01 10^9/L
same,ABEOS (eosinophils),[5],0.17 ± 0.06 10^9/L
same,ABLYMP (lymphocytes),[5],10.1 ± 2.26 10^9/L
same,ABMONO (monocytes),[5],0.34 ± 0.09 10^9/L
same,ABNEUT (neutrophils),[5],2.43 ± 1.39 10^9/L
same,ABRETIC,[5],338.6 ± 20.2 10^9/L
same,APTT,[5],16.2 ± 1.82 s
same,HCT,[5],42.18 ± 0.92%
same,HGB,[5],12.68 ± 0.34 g/dL
same,MCH,[5],18.28 ± 0.56 pg
same,MCHC,[5],30.08 ± 0.52 g/dL
same,MCV,[5],60.78 ± 1.44 fL
same,MPV,[5],9.05 ± 0.36 fL
same,PLT,[5],1421.5 ± 225.3 10^9/L
same,PT,[5],20.87 ± 1.2 s
same,RBC,[5],6.94 ± 0.18 10^12/L
same,WBC,[5],13.19 ± 3.49 10^9/L
same,ABBASO (basophils),[6],0.005 ± 0.006 10^9/L
same,ABEOS (eosinophils),[6],0.088 ± 0.013 10^9/L
same,ABLYMP (lymphocytes),[6],7.695 ± 0.12 10^9/L
same,ABMONO (monocytes),[6],0.283 ± 0.124 10^9/L
same,ABNEUT (neutrophils),[6],1.185 ± 0.375 10^9/L
same,ABRETIC,[6],250.78 ± 19.32 10^9/L
same,APTT,[6],17.44 ± 0.85 s
same,HCT,[6],48.4 ± 1.29%
same,HGB,[6],15.1 ± 0.41 g/dL
same,MCH,[6],18.63 ± 1.63 pg
same,MCHC,[6],31.23 ± 0.69 g/dL
same,MCV,[6],59.58 ± 4.36 fL
same,MPV,[6],9.35 ± 0.33 fL
same,PLT,[6],862.8 ± 95.1 10^9/L
same,PT,[6],19.76 ± 0.92 s
same,RBC,[6],8.163 ± 0.679 10^12/L
same,WBC,[6],9.315 ± 0.344 10^9/L
same,ABBASO (basophils),[7],0.012 ± 0.008 10^9/L
same,ABEOS (eosinophils),[7],0.086 ± 0.059 10^9/L
same,ABLYMP (lymphocytes),[7],10.178 ± 2.676 10^9/L
same,ABMONO (monocytes),[7],0.262 ± 0.043 10^9/L
same,ABNEUT (neutrophils),[7],1.498 ± 0.573 10^9/L
same,ABRETIC,[7],252.72 ± 25.77 10^9/L
same,APTT,[7],17.86 ± 1.84 s
same,HCT,[7],47.5 ± 1.89%
same,HGB,[7],14.72 ± 0.59 g/dL
same,MCH,[7],18.6 ± 0.49 pg
same,MCHC,[7],30.98 ± 0.24 g/dL
same,MCV,[7],60.06 ± 2.02 fL
same,PLT,[7],878 ± 118.5 10^9/L
same,PT,[7],19.88 ± 0.94 s
same,RBC,[7],7.916 ± 0.383 10^12/L
same,WBC,[7],12.12 ± 2.998 10^9/L
same,ABBASO (basophils),[8],0.01 ± 0.01 10^9/L
same,ABEOS (eosinophils),[8],0.11 ± 0.062 10^9/L
same,ABLYMP (lymphocytes),[8],8.444 ± 1.168 10^9/L
same,ABMONO (monocytes),[8],0.27 ± 0.06 10^9/L
same,ABNEUT (neutrophils),[8],1.742 ± 0.58 10^9/L
same,ABRETIC,[8],270.82 ± 25.29 10^9/L
same,APTT,[8],17.34 ± 1.96 s
same,HCT,[8],47.62 ± 1.59%
same,HGB,[8],14.6 ± 0.55 g/dL
same,MCH,[8],18.86 ± 0.15 pg
same,MCV,[8],61.52 ± 0.65 fL
same,MPV,[8],9.26 ± 0.24 fL
same,PLT,[8],985.4 ± 65 10^9/L
same,PT,[8],20.14 ± 0.95 s
same,RBC,[8],7.742 ± 0.232 10^12/L
same,WBC,[8],10.654 ± 1.291 10^9/L
